Tests used:
[1] = tested on: Human adenocarcinoma cell line LoVo; assay: Cell Based Screen for Inhibitors of Raf Kinase, LoVo cells; settings: four days, SRB
Protocol: (§1) • Cell Lines: Human adenocarcinoma cell line LoVo which is known to be growth inhibited by low nM concentrations of a reference standard inhibitor of Ras and human adenocarcinoma cell line CaCo-2, which is known to be growth resistant to the same reference compound. • Cell Media: RPMI 1640 with 10% Fetal Bovine Serum supplemented with L-glutamine and Pennicilin/Streptomycin. • Compounds: Supplied usually as a 10 mM stock in 100% DMSO. • Normal Saline: 150 mM NaCl • Trichloroacetic Acid (TCA): 50% (w/v) in water • Sulforhodamine B (SRB): 0.4% (w/v) in 1% Acetic Acid • Tris Base: 10 mM in water
(§2) Cells are plated at 2000 cells per well for cell line LoVo and 1500 cells for cell line CaCo-2 in 96 well plates. Cells are plated in media (200 µl) and allowed to adhere overnight at 37° C. At 24 hours post plating, compounds are added directly at a volume of 0.5 µl. For the qualitative screen (compounds screened at 25 µM) compound is added directly to cells. For the quantitative screen, compound is first diluted in DMSO to generate concentrations of compound or reference standard of: 1, 5, 10 and 25 µM. It is advisable to make the dilutions in an identical 96 well plate so that compounds may be added using a multichannel micropipettor set at 0.5 µl. The cells are then incubated for four days after which the media is removed using a 12 well manifold by first tipping the plate forward at a 45 degree angle and then inserting the manifold in an upright orientation to prevent the tips of the manifold from disturbing cells at the bottom of the plate. 200 µl of normal saline is then added to each well using an 8 well multichannel pipettor, followed by the careful addition of 50 µl of 50% TCA. The plates are then incubated for 2 hours at 4 ° C, after which the supernatant is removed using the same technique as above and the plated washed twice with 200 µl water. The plates are then air dried and 50 µl of SRB stock solution is carefully added so that the entire bottom of each well is covered. This again may be used using an 8 well multichannel pipettor. The SRB is incubated with fixed cells for 15 minutes at room temperature after which the SRB is removed with the manifold as described above and the plates washed twice with 350 µl of 1% acetic acid per well each time.The plates are then air dried after which the bound SRB is released from protein by the addition of 200 µl of Tris base. Resolubilizing the SRB is aided by placing the plates on a rotator for 15-30 minutes. The absorbance of each well is determined at 550 or 562 nm using a microtiter plate reader.
(§3) Each compound or dilution thereof is performed in triplicate. Outliers are identified by visual inspection of the data. Each plate should have a "0" control (vehicle only).
(§4) Quantitative Assay: A standard curve is constructed by plotting the concentration of compound against the average absorbance calculated at that concentration. A curve is plotted and the concentration at which the curve passes through the 50% the absorbance mark seen in the "0" control well is the IC50 calculated for that compound. […]

[2] = tested on: human adenocarcinoma cell line CaCo-2; assay: Cell Based Screen for Inhibitors of Raf Kinase, CaCo-2 cells; settings: CaCo-2, four days, SRB
Protocol: as §1, §2, §3, §4

Compound	IC50 ([1]; Homo sapiens, 96 h)	IC50 ([2]; Homo sapiens, Caco-2, 96 h)	IC50 [2]	IC50 [1]
N#Cc1cnc2cc(-c3ccc(CN4CCOCC4)c(CN4CCOCC4)c3)ccc2c1Nc1ccc(OCc2ccccc2)c(Cl)c1 [Example 132, 4-[4-(benzyloxy)-3-chloroanilino]-7-[3,4-bis(4-morpholinylmethyl)phenyl]-3-quinolinecarbonitrile]	0.43 µM	7 µM	–	–
Cn1ccnc1Sc1ccc(Nc2c(C#N)cnc3cc(-c4ccc(CN5CCC(O)CC5)cc4)ccc23)cc1Cl [Example 134, 4-{3-chloro-4-[(1-methyl-1H-imidazol-2-yl)sulfanyl]anilino}-7-{4-[(4-hydroxy-1-piperidinyl)methyl]phenyl}-3-quinolinecarbonitrile]	0.0046 µM	> 1 µM	–	–
CN1CCN(Cc2ccc(-c3ccc4c(Nc5ccc(Sc6nccn6C)c(Cl)c5)c(C#N)cnc4c3)cc2)CC1 [Example 135, 4-{3-chloro-4-[(1-methyl-1H-imidazol-2-yl)sulfanyl]anilino}-7-{4-[(4-methyl-1-piperazinyl)methyl]phenyl}-3-quinolinecarbonitrile]	0.0068 µM	> 1 µM	–	–
Cn1ccnc1Sc1ccc(Nc2c(C#N)cnc3cc(-c4ccc(CN5CCN(C(=O)OC(C)(C)C)CC5)cc4)ccc23)cc1Cl [Example 137, tert-butyl 4-{4-[4-({3-chloro-4-[(1-methyl-1H-imidazol-2-yl)sulfanyl]phenyl}amino)-3-cyano-7-quinolinyl]benzyl}-1-piperazinecarboxylate]	0.0485 µM	> 1 µM	–	–
Cn1ccnc1Sc1ccc(Nc2c(C#N)cnc3cc(-c4ccc(CN5CCOCC5)o4)ccc23)cc1Cl [Example 154, 4-{3-chloro-4-[(1-methyl-1H-imidazol-2-yl)sulfanyl]anilino}-7-[5-(4-morpholinylmethyl)-2-furyl]-3-quinolinecarbonitrile]	0.0068 µM	> 1 µM	–	–
Cn1ccnc1Sc1ccc(Nc2c(C#N)cnc3cc(-c4ccc(CN5CCN(CCO)CC5)o4)ccc23)cc1Cl [Example 157, 4-{3-chloro-4-[(1-methyl-1H-imidazol-2-yl)sulfanyl]anilino}-7-(5-{[4-(2-hydroxyethyl)-1-piperazinyl]methyl}-2-furyl)-3-quinolinecarbonitrile]	0.0245 µM	> 1 µM	–	–
Cn1ccnc1Sc1ccc(Nc2c(C#N)cnc3cc(-c4ccc(CN5CCC(O)CC5)s4)ccc23)cc1Cl [Example 159, 4-{3-chloro-4-[(1-methyl-1H-imidazol-2-yl)sulfanyl]anilino}-7-{5-[(4-hydroxy-1-piperidinyl)methyl]-2-thienyl}-3-quinolinecarbonitrile]	0.0042 µM	0.71 µM	–	–
Cn1ccnc1Sc1ccc(Nc2c(C#N)cnc3cc(-c4ccc(CN5CCCCC5)s4)ccc23)cc1Cl [Example 160, 4-{3-chloro-4-[(1-methyl-1H-imidazol-2-yl)sulfanyl]anilino}-7-[5-(1-piperidinylmethyl)-2-thienyl]-3-quinolinecarbonitrile]	0.0041 µM	0.62 µM	–	–
Cn1ccnc1Sc1ccc(Nc2c(C#N)cnc3cc(-c4ccc(CN5CCN(CCO)CC5)s4)ccc23)cc1Cl [Example 161, 4-{3-chloro-4-[(1-methyl-1H-imidazol-2-yl)sulfanyl]anilino}-7-(5-{[4-(2-hydroxyethyl)-1-piperazinyl]methyl}-2-thienyl)-3-quinolinecarbonitrile]	0.0056 µM	> 1 µM	–	–
N#Cc1cnc2cc(-c3cc(CN4CCOCC4)c(CN4CCOCC4)s3)ccc2c1Nc1ccc(Oc2ccccc2)cc1 [Example 168, 7-[4,5-bis(4-morpholinylmethyl)-2-thienyl]-4-(4-phenoxyanilino)-3-quinolinecarbonitrile]	2 µM	4.6 µM	–	–
Cn1ccnc1Sc1ccc(Nc2c(C#N)cnc3cc(-c4ccc(C=O)cn4)ccc23)cc1Cl [Example 170, 4-{3-chloro-4-[(1-methyl-1H-imidazol-2-yl)sulfanyl]anilino}-7-(5-formyl-2-pyridinyl)-3-quinolinecarbonitrile]	0.05 µM	> 10 µM	5 µM	–
Cn1ccnc1Sc1ccc(Nc2c(C#N)cnc3cc(-c4ccc(CN5CCC(O)CC5)cn4)ccc23)cc1Cl [Example 172, 4-{3-chloro-4-[(1-methyl-1H-imidazol-2-yl)sulfanyl]anilino}-7-{5-[(4-hydroxy-1-piperidinyl)methyl]-2-pyridinyl}-3-quinolinecarbonitrile]	0.0079 µM	> 1 µM	–	–
Cn1ccnc1Sc1ccc(Nc2c(C#N)cnc3cc(-c4ccc(CN5CCC(N6CCCC6)CC5)cn4)ccc23)cc1Cl [Example 173, 4-{3-chloro-4-[(1-methyl-1H-imidazol-2-yl)sulfanyl]anilino}-7-(5-{[4-(1-pyrrolidinyl)-1-piperidinyl]methyl}-2-pyridinyl)-3-quinolinecarbonitrile]	0.025 µM	> 1 µM	–	–
Cn1ccnc1Sc1ccc(Nc2c(C#N)cnc3cc(-c4ccc(CN5CCC(C(=O)O)CC5)cn4)ccc23)cc1Cl [Example 175, 1-{[6-(4-{3-chloro-4-[(1-methyl-1H-imidazol-2-yl)sulfanyl]anilino}-3-cyano-7-quinolinyl)-3-pyridinyl]methyl}-4-piperidinecarboxylic acid]	0.33 µM	> 1 µM	–	–
Cn1ccnc1Sc1ccc(Nc2c(C#N)cnc3cc(-c4ccc(CN5CCOCC5)cn4)ccc23)cc1Cl [Example 187, 4-{3-chloro-4-[(1-methyl-1H-imidazol-2-yl)sulfanyl]anilino}-7-[5-(4-morpholinylmethyl)-2-pyridinyl]-3-quinolinecarbonitrile]	–	> 10 µM	5.5 µM	0.009 µM
CN1CCN(Cc2ccc(-c3ccc4c(Nc5ccc(Sc6nccn6C)c(Cl)c5)c(C#N)cnc4c3)nc2)CC1 [Example 189, 4-{3-chloro-4-[(1-methyl-1H-imidazol-2-yl)sulanyl]anilino}-7-{5-[(4-methyl-1-piperazinyl)methyl]-2-pyridinyl}-3-quinolinecarbonitrile]	0.006 µM	1.25 µM	–	–
CN1CCN(c2ccc(-c3ccc4c(Nc5ccc(Sc6nccn6C)c(Cl)c5)c(C#N)cnc4c3)cn2)CC1 [Example 196, 4-{3-chloro-4-[(1-methyl-1H-imidazol-2-yl)sulfanyl]anilino}-7-[6-(4-methyl-1-piperazinyl)-3-pyridinyl]-3-quinolinecarbonitrile]	< 0.005 µM	1.1 µM	0.55 µM	0.0029 µM
Cn1ccnc1Sc1ccc(Nc2c(C#N)cnc3cc(-c4cccc(CN5CCOCC5)n4)ccc23)cc1Cl [Example 199, 4-{3-chloro-4-[(1-methyl-1H-imidazol-2-yl)sulfanyl]anilino}-7-[6-(4-morpholinylmethyl)-2-pyridinyl]-3-quinolinecarbonitrile]	0.0095 µM	> 1 µM	–	–
CCN1CCN(Cc2cccc(-c3ccc4c(Nc5ccc(Sc6nccn6C)c(Cl)c5)c(C#N)cnc4c3)n2)CC1 [Example 201, 4-{3-chloro-4-[(1-methyl-1H-imidazol-2-yl)sulfanyl]anilino}-7-{6-[(4-ethyl-1-piperazinyl)methyl]-2-pyridinyl}-3-quinolinecarbonitrile]	0.0084 µM	> 1 µM	–	–
CN1CCN(Cc2cccc(-c3ccc4c(Nc5ccc(Sc6nccn6C)c(Cl)c5)c(C#N)cnc4c3)n2)CC1 [Example 202, 4-{3-chloro-4-[(1-methyl-1H-imidazol-2-yl)sulfanyl]anilino}-7-{6-[(4-methyl-1-piperazinyl)methyl]-2-pyridinyl}-3-quinolinecarbonitrile]	0.0065 µM	> 1 µM	–	–
Cn1ccnc1Sc1ccc(Nc2c(C#N)cnc3cc(-c4cc(CN5CCOCC5)ccn4)ccc23)cc1Cl [Example 203, 4-({3-chloro-4-[(1-methyl-1H-imidazol-2-yl)sulfanyl]phenyl}amino)-7-[4-(4-morpholinylmethyl)-2-pyridinyl]-3-quinolinecarbonitrile]	0.0097 µM	> 1 µM	–	–
CCN1CCN(Cc2ccnc(-c3ccc4c(Nc5ccc(Sc6nccn6C)c(Cl)c5)c(C#N)cnc4c3)c2)CC1 [Example 205, 4-({3-chloro-4-[(1-methyl-1H-imidazol-2-yl)sulfanyl]phenyl}amino)-7-{4-[(4-ethyl-1-piperazinyl)methyl]-2-pyridinyl}-3-quinolinecarbonitrile]	0.275 µM	0.94 µM	–	–

From patent EP1268431B1 (Wyeth, priority 2000, dated 2001)
